“And” between values parts separate entries of the source, which are not always exact repeats. Identical values can stand only once. Like-named read-outs stand apart in the source and are kept apart here.
Assays:
[1] = biological target: T1, purified recombinant human IPMK kinase domain (Homo sapiens, UniProt Q8NFU5); assay: IPMK IC50 determination, Kinase-Glo assay; type: biochemical
T1 sequence (Q8NFU5 with tags, fused parts or gaps): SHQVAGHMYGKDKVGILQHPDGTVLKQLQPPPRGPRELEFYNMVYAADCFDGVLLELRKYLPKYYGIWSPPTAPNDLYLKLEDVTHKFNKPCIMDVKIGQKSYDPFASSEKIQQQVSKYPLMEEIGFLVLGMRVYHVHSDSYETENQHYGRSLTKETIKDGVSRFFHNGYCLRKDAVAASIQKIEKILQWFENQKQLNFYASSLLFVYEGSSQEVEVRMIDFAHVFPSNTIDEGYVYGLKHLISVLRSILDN
Text: (§1) These assay conditions were optimized with respect to reaction time, IPMK enzyme concentration, and IP3 concentration to determine the IC50 values for these ATP-competitive compounds.

[2] = system: purified recombinant human IPMK kinase domain; assay: IPMK IC50 determination, Kinase-Glo assay; type: biochemical; conditions: compared to compound 1
Text: as §1

[3] = biological target: T2, purified recombinant human IP6K2 kinase domain (Homo sapiens, UniProt Q9UHH9); assay: IP6K2 IC50 determination, malachite green Pi release assay; type: biochemical; conditions: for IP6K2/IPMK: Table S1, ratio of IC50 values; for IC50: supplementary csv
T2 sequence (Q9UHH9 1-426): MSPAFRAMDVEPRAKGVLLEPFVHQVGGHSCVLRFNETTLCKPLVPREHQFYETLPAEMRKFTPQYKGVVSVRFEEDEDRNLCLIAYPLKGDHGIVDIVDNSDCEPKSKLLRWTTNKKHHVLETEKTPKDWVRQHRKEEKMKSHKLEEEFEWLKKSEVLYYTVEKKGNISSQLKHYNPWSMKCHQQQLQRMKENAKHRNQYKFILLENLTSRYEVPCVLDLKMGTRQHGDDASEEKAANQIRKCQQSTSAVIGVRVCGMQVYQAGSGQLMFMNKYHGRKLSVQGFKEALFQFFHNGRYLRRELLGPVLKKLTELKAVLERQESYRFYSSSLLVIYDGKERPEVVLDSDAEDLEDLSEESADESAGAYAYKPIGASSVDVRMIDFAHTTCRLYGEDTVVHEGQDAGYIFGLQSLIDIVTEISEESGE
Method: IP6K2 IC50 values were determined using the purified recombinant human IP6K2 kinase domain expressed in a 384-well clear polystyrene plate (VWR 82051-264). This human IP6K2 kinase domain (100 nM) was used at 37 °C in 50 μL reaction mixtures containing 5.0 μM human Dipp1, 50 mM Tris (pH 6.9), 10 mM MgCl2, 0.02% Triton X-100, 25 μM InsP6, and 50 μM ATP for 30 min. Pi release was determined with a malachite green colorimetric assay. Reactions were quenched by the addition of 12.5 μL of phosphate detection reagent (MAK3071KT, Sigma-Aldrich). Pi release was quantified from the absorbance at 620 nm by using appropriate standards.

[4] = system: human U251-MG glioblastoma cells; assay: CyQuant cell count / proliferation assay; type: cell-based; conditions: 400 nM, 48 h, vs DMSO
Method: 1 Compound 1 inhibits human U251 glioblastoma cell growth and labeled inositol phosphate levels. (A) Schematic of inositol phosphate metabolism. (B) Chemical structure of compound 1, indicating moiety A (blue highlight), the core (gray highlight), and moiety B (red highlight), and the IC50 value as determined by the kinase-GLO assay. (C) CyQuant cell count assay of 10,000 human U251-MG glioblastoma cells seeded per well, treated for 48 h with DMSO vehicle or 400 nM compound 1 (n = 8, ***p = 0.0046, unpaired t test). (D) HPLC analysis of ^3H-inositol phosphates from U251-MG cells treated with 400 nM compound 1 (red bars) or DMSO (blue bars) and metabolically labeled with ^3H-inositol for 48 h, expressed as the percentage of the inositol peak from the HPLC for InsP3, InsP4, InsP5, and InsP6, as indicated, *p < 0.05 by unpaired t test Bonferroni corrected for multiple comparisons. (E) Same data as in (D) replotted with a nonzero y-axis to facilitate visualizing differences between DMSO vs. compound treatment for each indicated inositol phosphate species, *p < 0.05 by unpaired t test Bonferroni corrected for multiple comparisons.
Error represents the standard error from 3 independent assays. (B) CyQuant cellular proliferation assay of 10,000 human U251-MG glioblastoma cells seeded per well, treated for 48 h with DMSO vehicle or 10 μM 14 (n = 8, ****p adj < 0.0001 by one-way ANOVA, Dunnett’s corrected; *p < 0.05 by unpaired t test). (C) HPLC analysis of ^3H-inositol phosphates from U251-MG cells treated with 10 μM compound 14 (red bars) or DMSO (blue bars) and metabolically labeled with ^3H-inositol for 48 h, expressed as a percentage of all the peaks detectable from the HPLC, *p < 0.05, **p < 0.01, ***p < 0.001 by unpaired t test compared to DMSO-treated control for all remaining panels, n = 3. (D) Same as (C) but expressed as a percentage of the inositol HPLC peak, n = 3. (E) Same as C but expressed as a percentage of all the inositol phosphate peaks combined from the HPLC, n = 3.

[5] = system: inositol phosphate levels in U251-MG cells; assay: 3H-inositol metabolic labeling and HPLC of inositol phosphates; type: cell-based, human; conditions: 400 nM, 48 h, vs DMSO
Method: Human U251-MG glioblastoma cells (ECACC 09063001) were grown in DMEM supplemented with 10% FBS. The medium was changed to inositol-free DMEM, and cells were inositol-starved for 1–3 days. Cells were maintained in inositol-free DMEM medium, treated with the indicated inhibitor or DMSO for 1–2.5 h, and supplemented with 100 μCi ^3H-inositol (PerkinElmer) for 48 or 72 h, as indicated on each figure. Cells were then washed in PBS and lysed in 200 μL HCl (0.5 M), 250 μL of MeOH was added to each well of a 6-well plate (approximately 10^6 cells), followed by 125 μL of 2 M KCl. Lysates were scraped and sonicated on ice for three 1 min cycles. Inositol phosphate (IP) extracts were cleaned of lipids by adding 250 μL of CHCl3, vortexing and centrifuging samples for 2 min at 5000 rpm to separate upper aqueous and lower organic phases, upper phase contains soluble IPs. This extraction was repeated once. Samples were dried in a SpeedVac, resuspended in 10 mM ammonium phosphate (pH= 3.5), and filtered. HPLC separation and detection of the inositol species on the upper phase used a Partisphere SAX 4.6 mm × 250 mm column, eluted with 10 mM (buffer A) to 1.3 M (buffer B) ammonium phosphate (pH = 3.8) and online flow scintillation analyzer (FSA, PerkinElmer). Elution of [^32P]-labeled IP4, IP5, and IP6 standards confirmed the identity of each peak off the HPLC. Quantification represents three biologically independent metabolic labeling samples with error representing the standard deviation of the mean.

[6] = Pharmacokinetic studies in mice; type: in vivo, male CD1 mice; conditions: IV, 3 mg/kg; for AUC(0-t) / Cmax / clearance / half-life / Vd: male, CD1, mouse, plasma; for Vd: read-out: Vss
Method: All the procedures related to animal handling, care, and treatment in this study were performed according to guidelines approved by the Institutional Animal Care and Use Committee (IACUC) of Pharmaron (PK-R-06012023 and PK-M-07182023), following the guidance of the Association for Assessment and Accreditation of Laboratory Animal Care (AAALAC). A group of 3 male CD1 mice (2 for exploratory PK) were dosed intravenously (IV) or intraperitoneally (IP) with a solution formulation of the tested compounds in 10% NMP, 5% Solutol in normal saline (v/v/v, 10:5:85). From each mouse, blood samples ([…]) were collected from the orbital vein such that samples were obtained at 0.083, 0.25, 0.5, 1, 2, 4, 8, and 24 h post dose. At each time point, blood samples were collected from three mice in labeled microcentrifuge tubes containing EDTA-K2 as an anticoagulant. Plasma samples were separated by centrifugation of whole blood and stored at −75 ± 15 °C until bioanalysis. All samples were processed for analysis by precipitation using acetonitrile (ACN) and analyzed with a fit-for-purpose LC/MS/MS method (the below quantifiable limit (BLOQ) was 5.0 ng/mL). Pharmacokinetic parameters were calculated by a noncompartmental analysis model using WinNonlin 8.3.

[7] = supplementary csv, read-out: IPMK IC50
[8] = Kinase-Glo assay, 12.5 μM Ins(1,4,5)P3, 10 μM ATP, read-out: IC50 toward recombinant human IPMK

SMILES	IC50 [1, 7]	decrease of inhibitory activity toward IPMK compared to 1 [2]	IP6K2/IPMK [3]	IC50 [3]	IC50 [1, 8]	cell number, CyQuant DNA content assay [4]	accumulation of InsP4 [5]	accumulation of InsP5 [5]	accumulation of InsP6 [5]	AUC(0-t) [6]	Cmax [6]	clearance [6]	half-life [6]	Vd [6]	Vss (L/kg) [6]
Cc1cc(C)cc(-c2onc3ccc([C@H]4C[C@@H]4C(=O)O)cc23)c1 (racemic) [Compound 2, (±)-trans-2-(3-(3,5-Dimethylphenyl)benzo[c]isoxazol-5-yl)cyclopropane-1-carboxylic acid]	166 ± 19.6 nM	6 fold	1.6	265 ± 20 nM	–	–	–	–	–	–	–	–	–	–	–
Cc1cc(C)cc(-c2onc3ccc(/C=C/C(=O)O)cc23)c1 [Compound 1, (E)-3-(3-(3,5-Dimethylphenyl)benzo[c]isoxazol-5-yl)acrylic Acid]	–	–	9.5	248 ± 119 nM	26 nM and 26.2 nM	significant decrease in cell number	significantly decreased	significantly decreased	significantly decreased	–	–	–	–	–	–
Cc1cc(C)cc(-c2onc3ccc(C(=O)O)cc23)c1 [Compound 3]	215 ± 37.5 nM	8 fold	–	–	–	–	–	–	–	–	–	–	–	–	–
c1ccc(-c2onc3ccc(-c4nnn[nH]4)cc23)cc1 [Compound 6, 3-Phenyl-5-(1H-tetrazol-5-yl)benzo[c]isoxazole]	36 ± 5.5 nM	–	3.5	125 ± 66.2 nM	–	–	–	–	–	–	–	–	–	–	–
FC(F)(F)c1ccc(-c2onc3ccc(-c4nnn[nH]4)cc23)cc1 [Compound 7, 5-(1H-Tetrazol-5-yl)-3-(4-(trifluoromethyl)phenyl)benzo[c]isoxazole]	18.6 ± 1.4 nM	–	7.8	146 ± 97.1 nM	19 ± 1.4 nM	–	–	–	–	–	–	–	–	–	–
FC(F)(F)Oc1ccc(-c2onc3ccc(-c4nnn[nH]4)cc23)cc1 [Compound 8, 5-(1H-Tetrazol-5-yl)-3-(4-(trifluoromethoxy)phenyl)benzo[c]isoxazole]	18.3 ± 1.6 nM	–	5.0	91.7 ± 50.9 nM	18 ± 1.6 nM	–	–	–	–	46.9 µM·h	33 µM	3.15 mL/min/kg	0.92 h	0.26 L/kg	–
c1ccc(Oc2ccc(-c3onc4ccc(-c5nnn[nH]5)cc34)cc2)cc1 [Compound 9, 3-(4-Phenoxyphenyl)-5-(1H-tetrazol-5-yl)benzo[c]isoxazole]	185 ± 15.5 nM	–	5.1	942 ± 348 nM	–	–	–	–	–	–	–	–	–	–	–
O=C(Nc1ccc(-c2onc3ccc(-c4nnn[nH]4)cc23)cc1)C1CC1 [Compound 10, N-(4-(5-(1H-Tetrazol-5-yl)benzo[c]isoxazol-3-yl)phenyl)cyclopropanecarboxamide]	58.2 ± 3.4 nM	–	5.1	297 ± 141 nM	58 ± 3.4 nM	–	–	–	–	–	–	–	–	–	–
O=C(Nc1cccc(-c2onc3ccc(-c4nnn[nH]4)cc23)c1)C1CC1 [Compound 11, N-(3-(5-(1H-Tetrazol-5-yl)benzo[c]isoxazol-3-yl)phenyl)cyclopropanecarboxamide]	30.2 ± 1.7 nM	–	3.5	107 ± 64.4 nM	30 ± 1.7 nM	–	–	–	–	19.4 µM·h	66.6 µM	7.52 mL/min/kg	1.09 h	0.21 L/kg	–
c1cc(OC2CCNCC2)cc(-c2onc3ccc(-c4nnn[nH]4)cc23)c1 [Compound 12, 3-(3-(Piperidin-4-yloxy)phenyl)-5-(1H-tetrazol-5-yl)benzo[c]isoxazole]	31.3 ± 4 nM	–	4.9	153 ± 79.8 nM	31 ± 4 nM	–	–	–	–	10.8 µM·h	44 µM	11.8 mL/min/kg	1.29 h	0.23 L/kg	–
Clc1cnc(Oc2cccc(-c3onc4ccc(-c5nnn[nH]5)cc34)c2)c(Cl)c1 [Compound 13, 3-(3-((3,5-Dichloropyridin-2-yl)oxy)phenyl)-5-(1H-tetrazol-5-yl)benzo[c]isoxazole]	72.1 ± 5.2 nM	–	1.8	129 ± 44.1 nM	–	–	–	–	–	7.7 µM·h	50.5 µM	15.5 mL/min/kg	2.01 h	0.27 L/kg	increased
